From patent publication US20110045101A1, “FUNGICIDAL SUBSTITUTED AZOLES” (E.I. Du Pont De Nemours and Company, priority 2009, published 2011)
Marks after values point to notes of the source that are not given here.

Key:
Assay type in all cases: in vivo
Details in all cases: 100 = 100% disease control
Botrytis cinerea = experiment: Test C: tomato Botrytis on tomato seedlings, sprayed the day before inoculation, visual disease rating
Summary of the method: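 Tomato seedlings sprayed to run-off with compound suspended in acetone/water with 250 ppm Trem 014 surfactant, at 200 ppm (≈500 g/ha) or 40 ppm where marked, one day before Botrytis cinerea inoculation. Disease rated visually.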

[1] = system: Puccinia recondita f. sp. tritici; experiment: Test H: wheat leaf rust, test suspension sprayed after inoculation of wheat seedlings, visual disease rating
Summary of the method: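 Wheat seedlings inoculated with P. recondita spores, held 24 h saturated at 20 °C, then 2 days in growth chamber at 20 °C; compound suspension (acetone/water with Trem 014) sprayed to run-off afterwards. Rated visually; 200 ppm (≈500 g/ha) unless marked *, which denotes 40 ppm.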

Septoria nodorum = experiment: Test F: wheat glume blotch on wheat seedlings, sprayed the day before inoculation, visual disease rating
Summary of the method: (§1)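 Compounds were dissolved in acetone (3% of final volume), then suspended in 50/50 acetone/water with 250 ppm Trem 014 surfactant and sprayed to run-off on test plants. A 200 ppm suspension equals 500 g/ha. Ratings are at 200 ppm unless flagged as 40 ppm.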

Alternaria solani = experiment: Test D: tomato early blight, sprayed the day before inoculation, visual disease rating
Summary of the method: as §1

[2] = system: Puccinia recondita f. sp. tritici; experiment: Test I: wheat leaf rust on wheat seedlings, sprayed the day before inoculation, visual disease rating
Summary of the method: as §1

[3] = system: Erysiphe graminis f. sp. tritici; experiment: Test J: wheat powdery mildew on wheat seedlings, sprayed the day before inoculation, visual disease rating
Summary of the method: as §1

Septoria tritici = experiment: Test G: wheat leaf blotch on wheat seedlings, sprayed the day before inoculation, visual disease rating
Summary of the method: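 Wheat seedlings were sprayed to run-off with test suspension (acetone/water plus surfactant), generally 200 ppm (≈500 g/ha), or 40 ppm where marked. Septoria tritici spores were inoculated the next day; plants were held 48 h at 24°C in saturated atmosphere, then 19 days at 20°C before visual disease rating.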

[4] = 200 ppm, 0 = no control relative to controls

Structure (SMILES)	Test C disease control rating (Botrytis cinerea; [4]) [%]	Test H disease control rating [1, 4] [%]	Test F disease control rating (Septoria nodorum; [4]) [%]	Test D disease control rating (Alternaria solani; [4]) [%]	Test I disease control rating [2, 4] [%]	Test J disease control rating [3, 4] [%]	Test G disease control rating (Septoria tritici; [4]) [%]	Test C disease control rating (Botrytis cinerea; 40 ppm (marked *))	Test H disease control rating ([1]; 40 ppm (marked *))	Test F disease control rating (Septoria nodorum; 40 ppm (marked *))	Test D disease control rating (Alternaria solani; 40 ppm (marked *))	Test I disease control rating ([2]; 40 ppm (marked *))	Test J disease control rating ([3]; 40 ppm (marked *))	Test G disease control rating (Septoria tritici; 40 ppm (marked *))
COc1ccc(F)c(-c2c(Cl)nc(Cl)n2-c2ccc(C#N)cc2)c1F [compound 552]	99	0	0	100	46	98	96	–	–	–	–	–	–	–
COc1cc(F)c(-c2c(Cl)nc(Cl)n2-c2ccc(C)nc2)c(F)c1 [compound 553]	100	100	100	100	100	100	99	–	–	–	–	–	–	–
COc1cc(F)c(-c2c(Br)nc(Br)n2-c2ccc(C)nc2)c(F)c1 [compound 554]	100	100	100	100	100	100	99	–	–	–	–	–	–	–
COc1cc(F)c(-c2c(Br)ncn2-c2ccc(C)nc2)c(F)c1 [compound 555]	100	0	69	99	100	98	98	–	–	–	–	–	–	–
COc1cc(F)c(-c2c(Cl)ncn2-c2cccc(OC(F)F)c2)c(F)c1 [compound 556]	100	87	98	99	100	97	95	–	–	–	–	–	–	–
COc1cc(F)c(-c2c(Cl)ncn2-c2ccc(OC(F)F)cc2)c(F)c1 [compound 557]	100	43	78	99	99	87	96	–	–	–	–	–	–	–
COc1cc(F)c(-c2c(Cl)ncn2-c2cccc(OC(F)(F)F)c2)c(F)c1 [compound 558]	100	15	0	0	99	100	94	–	–	–	–	–	–	–
COc1cc(F)c(-c2c(Cl)ncn2-c2ccc(OC(F)(F)F)cc2)c(F)c1 [compound 559]	94	29	0	41	88	98	95	–	–	–	–	–	–	–
COc1cc(F)c(-n2cnc(C)c2-c2ccc(C)cc2)c(F)c1 [compound 560]	–	–	–	–	–	–	–	99* %	33* %	0* %	0* %	79* %	93* %	65* %
COc1ccc(F)c(-c2c(Cl)nc(Cl)n2-c2ccc(C)c(F)c2)c1F [compound 561]	99	9	97	100	100	100	100	–	–	–	–	–	–	–
COc1ccc(F)c(-c2c(Cl)nc(Cl)n2-c2ccc(Br)cc2)c1F [compound 562]	100	0	99	100	99	100	100	–	–	–	–	–	–	–
COc1ccc(F)c(-c2c(Cl)nc(Br)n2-c2ccc(Br)cc2)c1F [compound 563]	100	0	100	100	94	100	100	–	–	–	–	–	–	–
COc1cc(F)c(-n2c(Cl)nc(C)c2-c2ccc(C)cc2)c(F)c1 [compound 564]	–	–	–	–	–	–	–	99* %	66* %	64* %	100* %	100* %	100* %	99* %
COc1cc(F)c(-c2c(Cl)nc(Cl)n2-c2cccc(OC(F)F)c2)c(F)c1 [compound 565]	100	97	100	100	100	100	96	–	–	–	–	–	–	–
COc1cc(F)c(-c2c(Cl)nc(Cl)n2-c2ccc(OC(F)F)cc2)c(F)c1 [compound 566]	100	97	100	100	100	100	97	–	–	–	–	–	–	–
COc1cc(F)c(-c2c(Cl)nc(Cl)n2-c2cccc(OC(F)(F)F)c2)c(F)c1 [compound 567]	99	7	0	67	99	100	94	–	–	–	–	–	–	–
COc1cc(F)c(-c2c(Cl)nc(Cl)n2-c2ccc(OC(F)(F)F)cc2)c(F)c1 [compound 568]	99	72	98	100	100	100	94	–	–	–	–	–	–	–
COc1cc(F)c(-c2c(Cl)nc(C)n2-c2ccc(OC(F)F)cc2)c(F)c1 [compound 569]	100	84	100	100	100	99	97	–	–	–	–	–	–	–
COc1cc(F)c(-c2c(Cl)nc(Cl)n2-c2ccc(C)c(C#N)c2)c(F)c1 [compound 572]	–	–	–	–	–	–	–	100* %	0* %	92* %	99* %	99* %	71* %	95* %
Cc1nc(Cl)n(-c2ccc(F)cc2Cl)c1-c1ccc(Cl)c(F)c1 [compound 573]	100	22	0	100	100	99	96	–	–	–	–	–	–	–
COc1cc(Cl)c(-c2c(Cl)nc(Br)n2-c2ccc(Cl)c(F)c2)c(Cl)c1 [compound 574]	100	0	60	0	98	97	100	–	–	–	–	–	–	–
COc1cc(C#N)cc(F)c1-c1c(Cl)nc(Cl)n1-c1ccc(Cl)c(F)c1 [compound 575]	96	0	0	0	76	72	73	–	–	–	–	–	–	–
COc1cc(F)c(-c2c(Cl)nc(Cl)n2-c2cccnc2Br)c(F)c1 [compound 576]	100	100	100	99	100	99	100	–	–	–	–	–	–	–
Cc1ccc(-n2c(Cl)nc(Cl)c2-c2c(F)cccc2F)nc1 [compound 577]	100	97	87	100	100	100	100	–	–	–	–	–	–	–
COc1cc(F)c(-n2c(Cl)nc(CCl)c2-c2ccc(C)cc2)c(F)c1 [compound 581]	–	–	–	–	–	–	–	99* %	84* %	0* %	33* %	98* %	21* %	96* %
